Experimental data: PubChem BioAssay (NCI)
Values joined by “and” are separate entries in the source; they are usually repeats but may differ in a detail not shown here. Equal entries are not always repeated.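 Grown in 96-well plates, cells were treated for 48 hours with each compound at five concentrations. Insufficient inhibition: endpoint recorded as highest concentration tested. The concentration for 50% growth inhibition is given as GI50. The concentration for full growth arrest is given as TGI.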

Experiments:
Experiment in all cases: inhibition of tumour cell growth, NCI panel, 48 h
IGROV1 ovarian = system: IGROV1 ovarian
PC-3 prostate = system: PC-3 prostate
OVCAR-4 ovarian = system: OVCAR-4 ovarian
UACC-62 melanoma = system: UACC-62 melanoma
SNB-19 CNS = system: SNB-19 CNS
UO-31 renal = system: UO-31 renal
MALME-3M melanoma = system: MALME-3M melanoma
RPMI-8226 leukemia = system: RPMI-8226 leukemia
SK-MEL-2 melanoma = system: SK-MEL-2 melanoma
SK-OV-3 ovarian = system: SK-OV-3 ovarian

Structure (SMILES) | GI50 (IGROV1 ovarian) | TGI (IGROV1 ovarian) | GI50 (PC-3 prostate) | TGI (PC-3 prostate) | GI50 (OVCAR-4 ovarian) | TGI (OVCAR-4 ovarian) | GI50 (UACC-62 melanoma) | TGI (UACC-62 melanoma) | GI50 (SNB-19 CNS) | TGI (SNB-19 CNS) | GI50 (UO-31 renal) | TGI (UO-31 renal) | GI50 (MALME-3M melanoma) | TGI (MALME-3M melanoma) | GI50 (RPMI-8226 leukemia) | TGI (RPMI-8226 leukemia) | GI50 (SK-MEL-2 melanoma) | TGI (SK-MEL-2 melanoma) | GI50 (SK-OV-3 ovarian) | TGI (SK-OV-3 ovarian)
O=C(/C=C/c1ccc(O)c(O)c1)NCc1c[nH]c2ccccc12 | 57.3 µM | > 100 µM | 71.3 µM | > 100 µM | > 100 µM | > 100 µM | 80.6 µM | > 100 µM | > 100 µM | > 100 µM | 36.9 µM | > 100 µM | 29.2 µM | > 100 µM | 57.9 µM | > 100 µM |  |  |  | 
NS(=O)(=O)c1ccc(N2N=C3c4ccccc4CC3C2c2cccs2)cc1 (configuration not stated) | 30 µM | 89.9 µM | 22.1 µM | 59.5 µM | > 100 µM | > 100 µM | 21.8 µM | 44.3 µM | 34.4 µM | > 100 µM | 39.4 µM | > 100 µM |  |  | 32.3 µM | > 100 µM | > 100 µM | > 100 µM | 48 µM | > 100 µM
O=c1cc(-c2ccc(O)cc2)oc2cc(O[C@@H]3O[C@H](CO)[C@@H](O)[C@H](O)[C@H]3O)cc(O)c12 |  | > 100 µM |  | > 100 µM |  | > 100 µM |  | > 100 µM |  | > 100 µM |  | > 100 µM |  |  |  | > 100 µM |  | > 100 µM |  | > 100 µM
CCc1cccc(C)c1N1C(=O)C(=O)C(c2nc3ccccc3o2)C(=O)C1=O |  | > 100 µM |  |  |  | > 100 µM |  | > 100 µM |  | > 100 µM |  | > 100 µM |  | > 100 µM |  | > 100 µM |  | > 100 µM |  | > 100 µM
O=c1c2cc(-c3ccccc3)sc2ncn1Cc1ccc(Cl)c(Cl)c1 | 1.93 µM | 34.9 µM | 19.1 µM | 55.1 µM | 12.5 µM | 38 µM | 13 µM | 28 µM | 26.8 µM | > 100 µM | 31.8 µM | > 100 µM |  |  | 36.8 µM | > 100 µM | 12.2 µM | 57.3 µM | 19.4 µM | 58 µM
Cc1cccc2c1c1ccc3c(c1n2C)C(=O)C=CC3=O |  | 32.5 µM |  |  |  | 24.3 µM |  | 26.5 µM |  | 32.3 µM |  | 9.83 µM |  | 14 µM |  | 13.2 µM |  | 33.6 µM |  | 37.3 µM
CCOC(=O)CCC1(C(=O)OCC)CCCC1=O (configuration not stated) |  | > 100 µM |  |  |  | > 100 µM |  | > 100 µM |  | > 100 µM |  | > 100 µM |  | > 100 µM |  | 77.4 µM |  | > 100 µM |  | > 100 µM
Cc1cc(C)nc(/C(=N\NC(N)=O)C(=O)Nc2nc3ccc(C)cc3s2)c1 |  | > 100 µM |  |  |  | > 100 µM |  | > 100 µM |  | > 100 µM |  | > 100 µM |  | > 100 µM |  | > 69.6 µM |  | > 100 µM |  | > 100 µM
CC1=C2C(=CC(C)(C)[C@@H]2O)C(=O)[C@](C)(O)C12CC2 | 0.0231 µM | 0.105 µM and 0.0698 µM |  | 0.164 µM and 0.0194 µM | 0.0147 µM | 0.201 µM and 0.0458 µM |  | 0.0623 µM and 0.0678 µM | 0.0523 µM | 0.371 µM and 0.279 µM | 0.0174 µM | 0.0655 µM and 0.0768 µM | 0.0486 µM | 0.112 µM and 0.054 µM |  |  | 0.0196 µM | 0.0525 µM and 0.0223 µM | 0.0294 µM | 0.213 µM and 0.0676 µM
COC(=O)CCC12CCC(=O)C1[C@@H](C(=O)OC)C[C@H]2C(=O)OC (some centres not stated) |  | > 100 µM |  |  |  | > 100 µM |  | > 100 µM |  | > 100 µM |  | > 100 µM |  | > 100 µM |  | > 100 µM |  | > 100 µM |  | > 100 µM
Cc1ccc(Oc2ccccc2N)cc1 |  | > 100 µM |  |  |  | > 100 µM |  | > 100 µM |  | > 100 µM |  | 44.9 µM |  | > 100 µM |  | > 100 µM |  | > 100 µM |  | > 100 µM
COc1ccc(OC(C(=O)O)C(C)C)c2c1CCCC2=O (configuration not stated) |  | > 100 µM |  |  |  | > 100 µM |  | > 100 µM |  | > 100 µM |  | > 100 µM |  | > 100 µM |  | > 100 µM |  | > 100 µM |  | > 100 µM
Cc1c(C(=O)/C=C/C=C/c2ccccc2)[n+](=O)c2ccccc2n1[O-] |  | 65.5 µM |  |  |  | > 100 µM |  | 30.2 µM |  | > 100 µM |  | > 100 µM |  | 66.8 µM |  |  |  | 91.3 µM |  | > 100 µM
C#CCNC(=O)NCCCCC(NC(=O)OCc1ccccc1)C(=O)OCc1ccccc1 (configuration not stated) |  | > 100 µM |  |  |  | > 100 µM |  | > 100 µM |  | > 100 µM |  | > 72.3 µM |  | > 100 µM |  | 45.9 µM |  | > 100 µM |  | > 100 µM
O=c1cccccc1NCCCCCCCNc1cccccc1=O |  | > 100 µM |  |  |  | > 100 µM |  | 84.5 µM |  | > 100 µM |  | 80.3 µM |  | > 100 µM |  | 55.1 µM |  | > 100 µM |  | > 100 µM
O=C(C#Cc1ccccc1)N1c2ccccc2CC1c1c[nH]c2ccccc12 (configuration not stated) |  | 25.3 µM |  |  |  | 69.6 µM |  | 22.8 µM |  | > 100 µM |  | > 100 µM |  | 37.6 µM |  | 43.2 µM |  | 26.6 µM |  | 51 µM
Cl/C(N=Nc1ccccc1)=N/Nc1ccccc1 |  | > 100 µM |  |  |  | > 100 µM |  |  |  | > 100 µM |  |  |  | > 100 µM |  |  |  | > 100 µM |  | > 100 µM
NNc1cnn(-c2ccccc2)c(=O)c1Cl |  | > 100 µM |  |  |  | > 100 µM |  | > 100 µM |  |  |  | > 100 µM |  | > 100 µM |  | > 100 µM |  | > 100 µM |  | > 100 µM
N#C/C(=C\c1cccc(O)c1O)C(N)=O |  | > 100 µM |  |  |  | > 100 µM |  | > 100 µM |  | > 100 µM |  | 85.3 µM |  | > 100 µM |  | 65.6 µM |  | > 100 µM |  | 93.7 µM
CNc1ccc2ncccc2c1[N+](=O)[O-] |  | > 100 µM |  |  |  | > 100 µM |  | > 100 µM |  | > 100 µM |  | > 100 µM |  | > 100 µM |  | > 100 µM |  | > 100 µM |  | 
CSc1ncc(Br)c(Sc2nc(N)nc3nc[nH]c23)n1 | 12.9 µM | 44.2 µM |  |  | 5.08 µM | > 100 µM | 2.48 µM | 12.2 µM | 22.3 µM | > 100 µM | 1.94 µM | 11.2 µM | 3.34 µM | 18.3 µM |  |  | 1.12 µM | 7.33 µM | 1.62 µM | 10.3 µM
